The results in this text go back to article PMC8642396, “Crystal structure of human METTL6, the m^3C methyltransferase” (Communications Biology, 2021).

What all share (format): binding
Test [1] addresses T1, hMETTL6 (Homo sapiens, UniProt Q8TCB7, Y49F).
T1 construct: gene METTL6
T1 sequence (Q8TCB7 1-284 Y49F): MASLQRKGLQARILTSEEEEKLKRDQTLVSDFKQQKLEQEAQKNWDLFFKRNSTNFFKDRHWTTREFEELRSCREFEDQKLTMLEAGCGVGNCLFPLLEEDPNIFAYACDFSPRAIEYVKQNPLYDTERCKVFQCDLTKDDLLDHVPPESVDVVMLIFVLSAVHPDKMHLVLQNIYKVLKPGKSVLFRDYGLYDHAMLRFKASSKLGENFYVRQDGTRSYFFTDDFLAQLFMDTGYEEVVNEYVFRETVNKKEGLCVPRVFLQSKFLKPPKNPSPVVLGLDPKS
As to the kind of experiment: isothermal titration calorimetry.

Test [2] has as its target T2, hMETTL6 (Homo sapiens, UniProt Q8TCB7, D110A).
T2 construct: gene METTL6
T2 sequence (Q8TCB7 1-284 D110A): T1 sequence (Q8TCB7 1-284 Y49F) with F49Y, D110A
Nature of the test: isothermal titration calorimetry. Particulars: pH 8.0, 150 mM NaCl, 1 mM DTT, 25 °C; mutant partly aggregated, structural integrity disrupted. A general note: Isothermal titration calorimetry measures the heat released or taken up as one component is titrated into another.

The target of test [3] is T3, hMETTL6 (Homo sapiens, UniProt Q8TCB7, H61N).
T3 construct: gene METTL6
T3 sequence (Q8TCB7 1-284 H61N): T1 sequence (Q8TCB7 1-284 Y49F) with F49Y, H61N
As to the kind of experiment: isothermal titration calorimetry.

Test [4] deals with T4, hMETTL6 (Homo sapiens, UniProt Q8TCB7, E85Q).
T4 construct: gene METTL6
T4 sequence (Q8TCB7 1-284 E85Q): T1 sequence (Q8TCB7 1-284 Y49F) with F49Y, E85Q
As to the kind of experiment: isothermal titration calorimetry.

Test [5] addresses T5, hMETTL6 (Homo sapiens, UniProt Q8TCB7).
T5 construct: gene METTL6
T5 sequence (Q8TCB7 1-284): T1 sequence (Q8TCB7 1-284 Y49F) with F49Y
As to the kind of experiment: isothermal titration calorimetry.

In test [6] the target is T6, hMETTL6 (Homo sapiens, UniProt Q8TCB7, F111L).
T6 construct: gene METTL6
T6 sequence (Q8TCB7 1-284 F111L): T1 sequence (Q8TCB7 1-284 Y49F) with F49Y, F111L
As to the kind of experiment: isothermal titration calorimetry.

Test [7] concerns the target T7, hMETTL6 (Homo sapiens, UniProt Q8TCB7, C93S).
T7 construct: gene METTL6
T7 sequence (Q8TCB7 1-284 C93S): T1 sequence (Q8TCB7 1-284 Y49F) with F49Y, C93S
As to the kind of experiment: isothermal titration calorimetry.

The target in test [8] is T5, hMETTL6. As to the kind of experiment: X-ray crystal structure, […] Å. Particulars: protein mixed with 2 mM SAH; active site; ammonium sulfate, pH 5.6.

Where a chain is given by its changes, count along the chain named. pKd: −log10 of the molar value.

In general, pKd refers to the Kd on a negative log10 scale, so that one unit is a factor of ten. In the case of `C[S+](CC[C@H](N)C(=O)O)C[C@H]1O[C@@H](n2cnc3c(N)ncnc32)[C@H](O)[C@@H]1O` (some centres unmarked) [SAM], the pKd at hMETTL6 [1] was 5.02; on hMETTL6 [3], 5.51; at hMETTL6 [4], 4.06; on hMETTL6 [5], about 5.57; at hMETTL6 [6] it was 5.09; on hMETTL6 [7], 5.65. Further, the KD result on hMETTL6 [2] is reported as “the D110A mutation almost eliminated the association capacity of the enzyme”.

With `Nc1ncnc2c1ncn2[C@@H]1O[C@H](CSCC[C@H](N)C(=O)O)[C@@H](O)[C@H]1O` [SAH], on hMETTL6 [8], the “X-ray crystal structure, 1.9 Å” value was “we solved the structure of hMETTL6 in complex with SAH at a high resolution”.
